Assay results taken from the kinase profiling compilation of Christmann-Franck et al. (2016).

What was measured:
Test in all cases: radiometric filter-binding kinase assay, Kinase HotSpot
Conditions in all cases: compound 0.5 µM; ATP 10 µM
[1] = target: MAP4K4 (human) (UniProt O95819)
[2] = target: AKT1 (human) (UniProt P31749)
[3] = target: NTRK3 (human) (UniProt Q16288)
[4] = target: MAP3K3 (human) (UniProt Q99759)
[5] = target: EPHB4 (human) (UniProt P54760)
[6] = target: DYRK2 (human) (UniProt Q92630)
[7] = target: CAMK1G (human) (UniProt Q96NX5)
[8] = target: AURKA (human) (UniProt O14965)
[9] = target: FES (human) (UniProt P07332)
[10] = target: IRAK4 (human) (UniProt Q9NWZ3)
[11] = target: MARK2 (human) (UniProt Q7KZI7)
[12] = target: CSNK1G3 (human) (UniProt Q9Y6M4)
[13] = target: STK3 (human) (UniProt Q13188)
[14] = target: NEK3 (human) (UniProt P51956)
[15] = target: AXL (human) (UniProt P30530)
[16] = target: LCK (human) (UniProt P06239)
[17] = target: AKT2 (human) (UniProt P31751)
[18] = target: NEK6 (human) (UniProt Q9HC98)
[19] = target: PIM2 (human) (UniProt Q9P1W9)
[20] = target: STK4 (human) (UniProt Q13043)
[21] = target: TTK (human) (UniProt P33981)
[22] = target: PTK6 (human) (UniProt Q13882)
[23] = target: NUAK1 (human) (UniProt O60285)
[24] = target: DYRK1B (human) (UniProt Q9Y463)
[25] = target: CAMKK1 (human) (UniProt Q8N5S9)
[26] = target: STK16 (human) (UniProt O75716)
[27] = target: MAPK12 (human) (UniProt P53778)
[28] = target: MAPKAPK5 (human) (UniProt Q8IW41)
[29] = target: TXK (human) (UniProt P42681)
[30] = target: CDK7 CCNH MNAT1 (human) (UniProt P50613+P51948+P51946)
[31] = target: FGR (human) (UniProt P09769)
[32] = target: TAOK1 (human) (UniProt Q7L7X3)
[33] = target: AURKB (human) (UniProt Q96GD4)
[34] = target: MAPKAPK2 (human) (UniProt P49137)
[35] = target: PRKCB1 (human) (UniProt P05771)
[36] = target: FGFR1 (human) (UniProt P11362)
[37] = target: DMPK (human) (UniProt Q09013)
[38] = target: DAPK2 (human) (UniProt Q9UIK4)
[39] = target: INSR (human) (UniProt P06213)
[40] = target: EPHA3 (human) (UniProt P29320)
[41] = target: CSNK1G2 (human) (UniProt P78368)
[42] = target: PRKCZ (human) (UniProt Q05513)

MAP4K4 (human), sequence (O95819 whole entry, looked up): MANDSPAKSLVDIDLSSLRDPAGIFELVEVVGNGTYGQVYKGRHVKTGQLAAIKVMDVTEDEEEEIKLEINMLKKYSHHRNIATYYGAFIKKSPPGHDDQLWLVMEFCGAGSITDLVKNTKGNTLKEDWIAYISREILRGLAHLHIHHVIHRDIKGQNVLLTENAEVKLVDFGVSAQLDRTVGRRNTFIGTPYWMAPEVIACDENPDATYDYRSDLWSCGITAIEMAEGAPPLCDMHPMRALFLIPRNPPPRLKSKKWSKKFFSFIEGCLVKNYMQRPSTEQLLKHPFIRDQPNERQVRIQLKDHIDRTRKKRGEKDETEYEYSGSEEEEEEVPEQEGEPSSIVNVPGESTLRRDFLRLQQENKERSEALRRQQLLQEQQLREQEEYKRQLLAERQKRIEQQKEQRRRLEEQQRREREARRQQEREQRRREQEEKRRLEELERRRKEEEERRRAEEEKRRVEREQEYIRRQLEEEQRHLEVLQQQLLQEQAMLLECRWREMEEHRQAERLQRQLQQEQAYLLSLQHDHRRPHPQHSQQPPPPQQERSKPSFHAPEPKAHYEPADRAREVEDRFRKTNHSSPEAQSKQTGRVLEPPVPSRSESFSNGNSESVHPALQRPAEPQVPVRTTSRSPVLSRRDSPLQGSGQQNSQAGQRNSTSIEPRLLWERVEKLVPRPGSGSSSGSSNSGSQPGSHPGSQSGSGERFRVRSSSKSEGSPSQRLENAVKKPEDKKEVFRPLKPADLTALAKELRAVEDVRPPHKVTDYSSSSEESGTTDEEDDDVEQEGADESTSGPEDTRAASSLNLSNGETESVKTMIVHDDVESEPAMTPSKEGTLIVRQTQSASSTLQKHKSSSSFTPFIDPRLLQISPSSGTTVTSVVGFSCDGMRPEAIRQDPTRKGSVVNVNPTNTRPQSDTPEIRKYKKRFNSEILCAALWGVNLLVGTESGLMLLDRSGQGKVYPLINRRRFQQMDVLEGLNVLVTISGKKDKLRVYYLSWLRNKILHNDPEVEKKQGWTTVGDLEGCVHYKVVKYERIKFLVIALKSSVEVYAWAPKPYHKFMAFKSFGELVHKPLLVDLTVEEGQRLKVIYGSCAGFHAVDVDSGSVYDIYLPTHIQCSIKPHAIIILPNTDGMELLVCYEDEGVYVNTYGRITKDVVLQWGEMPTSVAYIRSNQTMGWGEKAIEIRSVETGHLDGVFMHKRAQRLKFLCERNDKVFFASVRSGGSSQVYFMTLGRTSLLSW
NEK6 (human), sequence (Q9HC98 whole entry, looked up): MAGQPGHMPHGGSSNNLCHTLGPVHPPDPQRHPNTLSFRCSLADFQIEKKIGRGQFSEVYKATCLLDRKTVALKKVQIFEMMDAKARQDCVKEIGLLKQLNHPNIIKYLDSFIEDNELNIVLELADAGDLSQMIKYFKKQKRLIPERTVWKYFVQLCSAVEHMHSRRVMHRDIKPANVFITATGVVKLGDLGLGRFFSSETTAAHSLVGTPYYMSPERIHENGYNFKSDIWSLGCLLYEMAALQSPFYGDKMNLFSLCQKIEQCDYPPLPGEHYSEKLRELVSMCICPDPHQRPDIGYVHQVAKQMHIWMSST
PRKCB1 (human), sequence (P05771 whole entry, looked up): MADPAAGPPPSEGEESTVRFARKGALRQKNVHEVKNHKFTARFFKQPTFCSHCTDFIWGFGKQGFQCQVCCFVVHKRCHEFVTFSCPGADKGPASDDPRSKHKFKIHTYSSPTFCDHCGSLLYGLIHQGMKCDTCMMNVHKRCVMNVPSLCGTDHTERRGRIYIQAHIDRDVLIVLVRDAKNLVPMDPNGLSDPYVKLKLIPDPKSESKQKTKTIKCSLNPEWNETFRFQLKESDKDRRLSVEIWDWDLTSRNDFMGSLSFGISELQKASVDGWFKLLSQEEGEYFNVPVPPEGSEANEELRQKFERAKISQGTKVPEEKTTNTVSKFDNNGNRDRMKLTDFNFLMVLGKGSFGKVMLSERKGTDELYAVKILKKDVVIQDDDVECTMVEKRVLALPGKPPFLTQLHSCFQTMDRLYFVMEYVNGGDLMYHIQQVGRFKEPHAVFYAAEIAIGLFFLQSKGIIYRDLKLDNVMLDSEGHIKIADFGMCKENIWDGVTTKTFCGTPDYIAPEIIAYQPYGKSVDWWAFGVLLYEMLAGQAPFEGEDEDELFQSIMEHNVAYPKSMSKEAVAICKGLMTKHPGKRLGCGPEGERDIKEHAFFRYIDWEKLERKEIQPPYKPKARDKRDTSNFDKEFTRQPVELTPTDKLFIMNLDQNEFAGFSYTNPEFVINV
AKT1 (human), sequence (P31749 whole entry, looked up): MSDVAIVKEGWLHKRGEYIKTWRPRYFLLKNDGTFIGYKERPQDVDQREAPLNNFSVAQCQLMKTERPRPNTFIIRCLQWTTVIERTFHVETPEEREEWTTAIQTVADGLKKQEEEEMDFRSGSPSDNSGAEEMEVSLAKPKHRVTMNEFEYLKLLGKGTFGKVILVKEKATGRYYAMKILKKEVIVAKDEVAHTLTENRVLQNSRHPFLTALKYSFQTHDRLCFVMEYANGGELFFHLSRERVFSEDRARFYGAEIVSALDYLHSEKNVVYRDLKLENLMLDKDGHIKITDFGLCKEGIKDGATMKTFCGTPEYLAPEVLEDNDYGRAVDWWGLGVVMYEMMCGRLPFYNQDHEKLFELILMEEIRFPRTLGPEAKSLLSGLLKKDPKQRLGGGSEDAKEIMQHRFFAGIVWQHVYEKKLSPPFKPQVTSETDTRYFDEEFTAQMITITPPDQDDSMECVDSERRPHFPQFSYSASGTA
CAMK1G (human), sequence (Q96NX5 whole entry, looked up): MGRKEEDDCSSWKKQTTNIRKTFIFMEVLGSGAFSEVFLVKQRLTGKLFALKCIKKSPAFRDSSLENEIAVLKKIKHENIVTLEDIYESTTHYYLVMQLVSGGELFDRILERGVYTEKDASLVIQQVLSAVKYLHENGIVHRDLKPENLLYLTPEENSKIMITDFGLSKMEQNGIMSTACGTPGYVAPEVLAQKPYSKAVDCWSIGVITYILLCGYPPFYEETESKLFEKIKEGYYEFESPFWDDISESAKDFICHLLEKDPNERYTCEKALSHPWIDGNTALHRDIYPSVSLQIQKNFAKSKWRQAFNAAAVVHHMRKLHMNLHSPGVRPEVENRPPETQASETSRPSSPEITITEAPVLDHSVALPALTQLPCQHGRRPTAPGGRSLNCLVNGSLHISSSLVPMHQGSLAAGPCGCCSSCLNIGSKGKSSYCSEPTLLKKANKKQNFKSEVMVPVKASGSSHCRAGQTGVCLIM
MAP3K3 (human), sequence (Q99759 whole entry, looked up): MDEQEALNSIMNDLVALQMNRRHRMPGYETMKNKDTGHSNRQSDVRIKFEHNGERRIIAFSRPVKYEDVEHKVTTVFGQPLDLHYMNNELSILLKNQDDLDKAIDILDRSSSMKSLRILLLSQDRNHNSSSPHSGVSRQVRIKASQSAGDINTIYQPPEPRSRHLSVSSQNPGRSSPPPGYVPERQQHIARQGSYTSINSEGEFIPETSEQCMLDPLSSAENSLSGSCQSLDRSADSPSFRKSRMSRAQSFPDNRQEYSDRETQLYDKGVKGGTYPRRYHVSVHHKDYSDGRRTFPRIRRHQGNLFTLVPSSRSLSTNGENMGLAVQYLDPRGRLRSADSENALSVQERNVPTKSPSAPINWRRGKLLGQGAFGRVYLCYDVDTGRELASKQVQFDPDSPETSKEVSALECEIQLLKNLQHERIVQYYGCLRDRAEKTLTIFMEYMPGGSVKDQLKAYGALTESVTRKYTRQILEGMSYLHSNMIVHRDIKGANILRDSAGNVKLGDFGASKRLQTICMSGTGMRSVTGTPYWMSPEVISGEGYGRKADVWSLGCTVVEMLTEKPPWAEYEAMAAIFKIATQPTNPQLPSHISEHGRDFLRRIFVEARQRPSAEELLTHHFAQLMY
DMPK (human), sequence (Q09013 whole entry, looked up): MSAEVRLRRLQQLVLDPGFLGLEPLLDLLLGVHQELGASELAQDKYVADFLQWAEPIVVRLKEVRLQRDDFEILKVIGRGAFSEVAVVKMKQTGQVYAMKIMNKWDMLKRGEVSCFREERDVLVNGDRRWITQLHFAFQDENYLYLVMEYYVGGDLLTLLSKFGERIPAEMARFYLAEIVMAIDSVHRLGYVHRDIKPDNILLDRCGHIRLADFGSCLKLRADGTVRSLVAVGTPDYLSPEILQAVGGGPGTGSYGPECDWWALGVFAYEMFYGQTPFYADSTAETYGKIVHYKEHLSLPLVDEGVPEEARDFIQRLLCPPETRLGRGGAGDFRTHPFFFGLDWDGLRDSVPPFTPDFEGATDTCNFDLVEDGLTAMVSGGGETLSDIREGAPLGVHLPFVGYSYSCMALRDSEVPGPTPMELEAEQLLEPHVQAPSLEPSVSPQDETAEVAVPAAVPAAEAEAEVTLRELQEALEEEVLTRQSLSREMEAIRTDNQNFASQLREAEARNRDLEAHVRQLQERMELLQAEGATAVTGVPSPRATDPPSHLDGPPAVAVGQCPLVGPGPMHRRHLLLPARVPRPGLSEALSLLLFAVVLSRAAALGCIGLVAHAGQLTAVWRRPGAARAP
STK3 (human), sequence (Q13188 whole entry, looked up): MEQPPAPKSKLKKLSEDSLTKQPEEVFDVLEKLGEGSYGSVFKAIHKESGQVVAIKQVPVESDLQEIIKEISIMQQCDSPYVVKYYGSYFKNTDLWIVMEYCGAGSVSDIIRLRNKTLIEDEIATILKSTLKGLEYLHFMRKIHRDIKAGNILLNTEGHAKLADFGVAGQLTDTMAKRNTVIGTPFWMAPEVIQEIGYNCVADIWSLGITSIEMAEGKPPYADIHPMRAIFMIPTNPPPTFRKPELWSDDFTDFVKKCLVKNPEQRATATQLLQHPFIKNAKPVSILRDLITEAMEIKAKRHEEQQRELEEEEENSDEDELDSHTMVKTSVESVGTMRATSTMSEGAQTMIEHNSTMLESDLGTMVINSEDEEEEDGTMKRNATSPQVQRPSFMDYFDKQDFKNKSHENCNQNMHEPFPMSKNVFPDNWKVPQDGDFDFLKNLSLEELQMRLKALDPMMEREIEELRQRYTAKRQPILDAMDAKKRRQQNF

With O=C1Nc2ccc(Br)cc2/C1=C\c1cc2c([nH]1)CCCC2 the residual activity [1] was 6.84%, the residual activity [2] was 99.8% and the residual activity [3] was 11.9%. For the same compound, the residual activity [4] was 88.6%, the residual activity [5] was 88.6% and the residual activity [6] was 90.8%. It also gave a residual activity [7] of 103%, a residual activity [8] of 87.5% and a residual activity [9] of 83.8%. It also gave a residual activity [10] of 67.2%, a residual activity [11] of 77% and a residual activity [12] of 103%. The residual activity [13] was 60.7%, the residual activity [14] was 86.7% and the residual activity [15] was 90%. It also gave a residual activity [16] of 84.5%, a residual activity [17] of 90.3% and a residual activity [18] of 103%. The residual activity [19] was 100%, the residual activity [20] was 44.1% and the residual activity [21] was 95.1%. It also gave a residual activity [22] of 82.3%, a residual activity [23] of 27.7% and a residual activity [24] of 93.9%. The residual activity [25] was 69.6%, the residual activity [26] was 94.3% and the residual activity [27] was 93%. For the same compound, the residual activity [28] was 90.6%, the residual activity [29] was 97.3% and the residual activity [30] was 93.6%. It also gave a residual activity [31] of 67.7%, a residual activity [32] of 92.3% and a residual activity [33] of 56.7%. The residual activity [34] was 97.5%, the residual activity [35] was 97.4% and the residual activity [36] was 76.7%. The residual activity [37] was 101%, the residual activity [38] was 102% and the residual activity [39] was 85.8%. The residual activity [40] was 94.6%, the residual activity [41] was 96.8% and the residual activity [42] was 104%.

Compound CS(=O)(=O)CCNCc1ccc(-c2ccc3ncnc(Nc4ccc(OCc5cccc(F)c5)c(Cl)c4)c3c2)o1 has a residual activity [1] of 111%, a residual activity [2] of 95.6% and a residual activity [3] of 103%. For the same compound, the residual activity [4] was 110%, the residual activity [5] was 94.1% and the residual activity [6] was 102%. For the same compound, the residual activity [7] was 102%, the residual activity [8] was 81.5% and the residual activity [9] was 104%. It also gave a residual activity [10] of 91.5%, a residual activity [11] of 137% and a residual activity [12] of 104%. The residual activity [13] was 93.7%, the residual activity [14] was 99.6% and the residual activity [15] was 96.2%. The residual activity [16] was 94.2%, the residual activity [17] was 105% and the residual activity [18] was 93.7%. The residual activity [19] was 102%, the residual activity [20] was 99.4% and the residual activity [21] was 102%. For the same compound, the residual activity [22] was 103%, the residual activity [23] was 108% and the residual activity [24] was 93.1%. For the same compound, the residual activity [25] was 98.8%, the residual activity [26] was 97.1% and the residual activity [27] was 95%. The residual activity [28] was 92.8%, the residual activity [29] was 110% and the residual activity [30] was 109%. It also gave a residual activity [31] of 84.8%, a residual activity [32] of 98.8% and a residual activity [33] of 98.4%. For the same compound, the residual activity [34] was 94.7%, the residual activity [35] was 93.5% and the residual activity [36] was 102%. For the same compound, the residual activity [37] was 94.7%, the residual activity [38] was 103% and the residual activity [39] was 105%. It also gave a residual activity [40] of 98.2%, a residual activity [41] of 99.5% and a residual activity [42] of 79.7%.

With Cc1nc(-c2ccccc2)c(-c2ccncc2)o1 the residual activity [1] was 85.1%, the residual activity [2] was 102% and the residual activity [3] was 105%. The residual activity [4] was 101%, the residual activity [5] was 84.8% and the residual activity [6] was 98.6%. It also gave a residual activity [7] of 92.8%, a residual activity [8] of 91.2% and a residual activity [9] of 101%. It also gave a residual activity [10] of 107%, a residual activity [11] of 94.3% and a residual activity [12] of 104%. It also gave a residual activity [13] of 104%, a residual activity [14] of 93.7% and a residual activity [15] of 91.1%. The residual activity [16] was 99.7%, the residual activity [17] was 96.7% and the residual activity [18] was 94.4%. It also gave a residual activity [19] of 110%, a residual activity [20] of 104% and a residual activity [21] of 100%. It also gave a residual activity [22] of 86%, a residual activity [23] of 100% and a residual activity [24] of 98.9%. It also gave a residual activity [25] of 123%, a residual activity [26] of 109% and a residual activity [27] of 105%. It also gave a residual activity [28] of 99.2%, a residual activity [29] of 99.4% and a residual activity [30] of 109%. The residual activity [31] was 89.7%, the residual activity [32] was 98.5% and the residual activity [33] was 97.3%. The residual activity [34] was 101%, the residual activity [35] was 95.2% and the residual activity [36] was 90.9%. For the same compound, the residual activity [37] was 103%, the residual activity [38] was 106% and the residual activity [39] was 85.6%. The residual activity [40] was 109%, the residual activity [41] was 92.2% and the residual activity [42] was 103%.

Compound CN(C)CCCn1cc(C2=C(c3c[nH]c4ccccc34)C(=O)NC2=O)c2ccccc21 has a residual activity [1] of 55.9%, a residual activity [2] of 93.5% and a residual activity [3] of 20.2%. It also gave a residual activity [4] of 97%, a residual activity [5] of 86.8% and a residual activity [6] of 111%. The residual activity [7] was 97.4%, the residual activity [8] was 108% and the residual activity [9] was 90.9%. The residual activity [10] was 135%, the residual activity [11] was 71.7% and the residual activity [12] was 96.9%. The residual activity [13] was 44.2%, the residual activity [14] was 110% and the residual activity [15] was 100%. For the same compound, the residual activity [16] was 91.8%, the residual activity [17] was 88.7% and the residual activity [18] was 96.3%. For the same compound, the residual activity [19] was 64.1%, the residual activity [20] was 25.1% and the residual activity [21] was 98.2%. For the same compound, the residual activity [22] was 95.3%, the residual activity [23] was 25.9% and the residual activity [24] was 76%. For the same compound, the residual activity [25] was 90.8%, the residual activity [26] was 80.8% and the residual activity [27] was 95.9%. It also gave a residual activity [28] of 93.7%, a residual activity [29] of 107% and a residual activity [30] of 92.1%. For the same compound, the residual activity [31] was 90.9%, the residual activity [32] was 80.8% and the residual activity [33] was 86.6%. For the same compound, the residual activity [34] was 85.4%, the residual activity [35] was 3.24% and the residual activity [36] was 74.1%. It also gave a residual activity [37] of 94.7%, a residual activity [38] of 105% and a residual activity [39] of 88.9%. For the same compound, the residual activity [40] was 93%, the residual activity [41] was 90.3% and the residual activity [42] was 57.2%.
